Experiment [1] can be described thus: Up-regulation of transcriptional activity of human CLA-1 promoter region -1055 to -62bp transfected in HepG2 cells by luciferase reporter gene assay. It is filed as cell-based. On the technique in general: A reporter such as luciferase makes a cellular process visible.
In another experiment the test system is U2OS. Put plainly: Cytotoxicity against human U2OS cells after 96 hrs by MTT assay. In kind it is functional, cell-based. For orientation: Tetrazolium dyes change colour on reduction, which living cells bring about.
In another experiment the test system is HepG2. Put plainly: Cytotoxicity against human HepG2 cells after 96 hrs by MTT assay. It is filed as functional, cell-based. The settings on record: HepG2, 96 h.
The next experiment relates to HeLa. Put plainly: Cytotoxicity against human HeLa cells after 96 hrs by MTT assay. It is filed as functional, cell-based.
Experiment [2] can be described thus: Cytotoxicity against human LO2 cells after 96 hrs by MTT assay. The settings on record: L02, 96 h. It is filed as cell-based.
A further experiment has as its system HEK293. Put plainly: Cytotoxicity against human HEK293 cells after 96 hrs by MTT assay. In kind it is cell-based. The conditions noted are these: HEK293, 96 h.

Each structure is given as a SMILES string.

What is called EC50 is the midpoint of the concentration-response curve. What is called IC50 is the point on the concentration scale where inhibition reaches its midpoint. Higher therefore signals a need for much substance. In experiment [1], `CNc1ccc(C(=O)[C@](C)(O)/C=C(C)/C=C/C(N)=O)cc1` had an EC50 of more than 100 µM. For the same compound, the IC50 was more than 200 µM in the experiment with U2OS; more than 200 µM in the experiment with HepG2; more than 200 µM in the experiment on HeLa; more than 200 µM in experiment [2]; more than 100 µM in the experiment on HEK293.
The compound `CC(/C=C/C(=O)NO[C@@H]1O[C@H](CO)[C@@H](O)[C@H](O)[C@H]1O)=C\[C@@H](C)C(=O)c1ccc(N(C)C)cc1` registered an EC50 in experiment [1] of 46 µM. Moreover, the half-inhibitory concentration (IC50) with U2OS is more than 200 µM; in the experiment with HepG2 it was more than 200 µM; in the experiment with HeLa, more than 200 µM; in experiment [2], more than 200 µM; in the experiment with HEK293, more than 100 µM.
For the compound `CC(/C=C/C(=O)O)=C\[C@@H](C)C(=O)c1ccc(N(C)C)cc1` [TRICHOSTATIC ACID], in experiment [1], the half-maximal effective concentration (EC50) was more than 100 µM. Also, the IC50 in the experiment on U2OS was more than 200 µM; in the experiment on HepG2, more than 200 µM; in the experiment with HeLa, more than 200 µM; in experiment [2], 89.2 µM; in the experiment on HEK293 it was 86.6 µM.
As to `CC(/C=C/C(N)=O)=C\[C@@H](C)C(=O)c1ccc(N(C)C)cc1`, the midpoint of the response in experiment [1], the EC50, lay at 2.39 µM. In addition, the IC50 is more than 200 µM with U2OS; more than 200 µM in the experiment on HepG2; more than 200 µM with HeLa; 29.1 µM in experiment [2]; 26.2 µM in the experiment with HEK293.
`CNc1ccc(C(=O)[C@](C)(O)/C=C(C)/C=C/C(=O)NO)cc1` showed a 50% effective concentration (EC50) in experiment [1] of 14.3 µM. Further, the IC50 in the experiment on U2OS is more than 200 µM; in the experiment on HepG2, more than 200 µM; with HeLa it was more than 200 µM; in experiment [2], 15.5 µM; in the experiment on HEK293, 14.2 µM.
For `CC(=C/[C@@H](C)C(=O)c1ccc(N(C)C)cc1)/C=C/C(=O)O`, the EC50 in experiment [1] is more than 100 µM. The IC50 in the experiment with U2OS is more than 200 µM; with HepG2, more than 200 µM; in the experiment with HeLa, more than 200 µM; in experiment [2], more than 200 µM; in the experiment on HEK293, more than 100 µM.
On to `CC(/C=C/C(=O)NO[C@H]1O[C@H](CO)[C@@H](O)[C@H](O)[C@H]1O)=C\[C@@H](C)C(=O)c1ccc(N(C)C)cc1`, for which the midpoint of the response in experiment [1], the EC50, lay at 48.2 µM. The half-inhibitory concentration (IC50) with U2OS is more than 200 µM; in the experiment on HepG2, more than 200 µM; in the experiment with HeLa, more than 200 µM; in experiment [2], more than 200 µM; in the experiment on HEK293, more than 100 µM.
As for `CC(/C=C/C(=O)NO)=C\[C@@H](C)C(=O)c1ccc(N(C)C)cc1` [TRICHOSTATIN], the EC50 in experiment [1] amounted to 0.38 µM. In addition, the IC50 with U2OS turned out to be 14.9 µM; with HepG2, 0.96 µM; in the experiment with HeLa, 0.85 µM; in experiment [2], 0.21 µM; with HEK293, 0.16 µM.
The compound `CNC(=O)/C=C/C(C)=C/[C@@H](C)C(=O)c1ccc(N(C)C)cc1` had an EC50 in experiment [1] of 78.8 µM. Besides, the IC50 in the experiment with U2OS was more than 200 µM; in the experiment on HepG2, more than 200 µM; with HeLa it was more than 200 µM; in experiment [2], 23.9 µM; in the experiment with HEK293, 8.14 µM.
`CC(/C=C/C(N)=O)=C\[C@@](C)(O)C(=O)c1ccc(N(C)C)cc1`: the EC50 in experiment [1] was more than 100 µM. In addition, the IC50 in the experiment on U2OS is more than 200 µM; in the experiment with HepG2, more than 200 µM; in the experiment with HeLa, more than 200 µM; in experiment [2] it was more than 200 µM; in the experiment on HEK293, more than 100 µM.

(Values after ChEMBL document CHEMBL3351706, “Identification of trichostatin derivatives from Streptomyces sp. CPCC 203909” (Bioorg Med Chem Lett, 2015).)
